{
  "source": "patent US4010149A",
  "about": "“Analogs of LH-RH and process for preparing the same” (Sankyo Company Limited, priority 1974, dated 1977)",
  "data": [
    {"test_system": "ovulation", "assay": "Ovulation inducing effect in proestrus rats (subcutaneous)", "type": "in vivo, F. Wistar-Imamichi rats", "settings": "subcutaneous injection at 4:00 p.m. on proestrus day; pentobarbital 30 mg/kg i.p. at 1:00 p.m.; five rats per dosage", "experimental": "Examination of ovulation inducing effect\nF. Wistar-Imamichi rats (body weight: around 250 g) were bred at room temperature (23° ±1° C) under an artificial light (on at 5:00 a.m. and off at 7:00 p.m.). Among these rats, the rats which had more than three times of four days sexual cycle were subjected to the test.\nAt 1:00 p.m. on proestrus days, pentobarbital sodium salt was intraperitoneally administered into each of rats (in the amount of 30 mg/kg). Then, at 4:00 p.m. of the same day, a test sample dissolved in 0.1 ml of isotonic sodium chloride solution was subcutaneously injected. Between noon and 1:00 p.m. of the next day, the rats were sacrified and the oviduct was immediately taken out. The oviduct was then placed between a couple of slide glasses and examined for ova through a microscope. The test was conducted by employing five rats for a certain dosage of test samples.", "units": {"ED50 (ovulation inducing effect)": "μg/body"}, "values": [
      {"compound": "N-Acetyl-N-methylglycyl-L-histidyl-L-tryptophyl-L-seryl-L-tyrosyl-D-alanyl-L-leucyl-L-arginyl-L-prolineethylamide [Compound A]", "ED50 (ovulation inducing effect)": 0.018},
      {"compound": "CCCC[C@@H](NC(=O)[C@H](Cc1ccc(O)cc1)NC(=O)[C@H](CO)NC(=O)[C@H](Cc1c[nH]c2ccccc12)NC(=O)[C@H](Cc1c[nH]cn1)NC(=O)CN(C)C(C)=O)C(=O)N[C@@H](CC(C)C)C(=O)N[C@@H](CCCNC(=N)N)C(=O)N1CCC[C@H]1C(=O)NCCF", "note": "[Compound B, N-Acetyl-N-methylglycyl-L-histidyl-L-tryptophyl-L-seryl-L-tyrosyl-D-norleucyl-L-leucyl-L-arginyl-L-proline-2-fluoroethylamide]", "ED50 (ovulation inducing effect)": 0.0125},
      {"compound": "CC(C)C[C@H](NC(=O)CNC(=O)[C@H](Cc1ccc(O)cc1)NC(=O)[C@H](CO)NC(=O)[C@H](Cc1c[nH]c2ccccc12)NC(=O)[C@H](Cc1c[nH]cn1)NC(=O)[C@@H]1CCC(=O)N1)C(=O)N[C@@H](CCCNC(=N)N)C(=O)N1CCC[C@H]1C(=O)NCC(N)=O", "note": "[Natural-type LH-RH (synthesized), L-pyroglutamyl-L-histidyl-L-tryptophyl-L-seryl-L-tyrosylglycyl-L-leucyl-L- arginyl-L-prolylglycine amide, reference compound]", "ED50 (ovulation inducing effect)": 0.134}
    ]}
  ]
}
